From publication PMC10938262 (Science translational medicine, 2023)

Target: T1, human estrogen receptor α (ERα) (Homo sapiens, UniProt P03372)
T1 sequence (P03372 302-552 limits assumed): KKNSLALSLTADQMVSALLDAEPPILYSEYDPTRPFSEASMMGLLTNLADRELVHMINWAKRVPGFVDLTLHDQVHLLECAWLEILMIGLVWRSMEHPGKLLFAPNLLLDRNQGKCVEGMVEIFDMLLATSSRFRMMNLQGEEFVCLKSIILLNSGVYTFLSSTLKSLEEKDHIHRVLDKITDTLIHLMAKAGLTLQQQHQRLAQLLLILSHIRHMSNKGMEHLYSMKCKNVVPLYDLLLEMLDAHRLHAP
Assay type: binding

Ki: 0.3 ± 0.1 nM
Compound: C[C@]12CC[C@@H]3c4ccc(O)cc4CC[C@H]3[C@@H]1C[C@@H](F)[C@@H]2O [FES, 16α-fluoroestradiol]
